Reference: patent US20250346585A1 (Alexion Pharmaceuticals, Inc., priority 2022, published 2025)

Biological target: Human complement C1s enzyme (Homo sapiens (Human), UniProt P09871)
Test: Human C1s enzyme assay
Format: biochemical
Settings: Human complement C1s enzyme 1.16 nM, substrate Z-L-Lys-SBzl; assay of Example 3; read-out: IC50 (Stars)
Summary of the method: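 Purified serum-derived human C1s (1.16 nM final) preincubated 5 min at room temperature with compound in 50 mM Tris, 1 M NaCl, pH 7.5. Z-L-Lys-SBzl thioester substrate and DTNB added (100 μM each, final); A405 read every 30 s for 30 min. IC50 from nonlinear regression of reaction rates against compound concentration.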

Chain of Human complement C1s enzyme (P09871 438-688 limits assumed): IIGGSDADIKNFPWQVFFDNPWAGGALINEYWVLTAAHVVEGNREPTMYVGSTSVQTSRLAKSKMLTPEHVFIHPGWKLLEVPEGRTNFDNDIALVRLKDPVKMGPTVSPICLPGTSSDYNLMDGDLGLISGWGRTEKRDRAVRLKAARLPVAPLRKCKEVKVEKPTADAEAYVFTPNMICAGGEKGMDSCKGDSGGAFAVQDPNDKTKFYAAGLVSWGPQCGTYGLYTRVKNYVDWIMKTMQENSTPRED
Chain of Human complement C1s enzyme (P09871 16-437 partner limits assumed): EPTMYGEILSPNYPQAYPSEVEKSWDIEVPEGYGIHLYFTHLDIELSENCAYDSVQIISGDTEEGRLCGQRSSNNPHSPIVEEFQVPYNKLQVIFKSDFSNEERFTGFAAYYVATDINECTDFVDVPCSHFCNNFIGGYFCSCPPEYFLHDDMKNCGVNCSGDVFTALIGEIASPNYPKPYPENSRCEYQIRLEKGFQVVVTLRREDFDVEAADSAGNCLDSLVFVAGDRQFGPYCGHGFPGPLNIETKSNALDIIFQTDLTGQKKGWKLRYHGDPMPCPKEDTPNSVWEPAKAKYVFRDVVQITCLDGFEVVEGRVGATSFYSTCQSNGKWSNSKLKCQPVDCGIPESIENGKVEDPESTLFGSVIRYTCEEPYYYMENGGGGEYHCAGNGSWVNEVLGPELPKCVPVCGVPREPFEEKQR

IC50, < 100 nM:
N=C(N)c1csc([C@@H](CO)NC(=O)[C@@H]2C[C@@H](OC(F)F)CN2C(=O)CNC(=O)c2ccc3c(c2)-c2ccccc2C3(F)F)c1 [Compound 403, (2S,4R)—N—((R)-1-(4-carbamimidoylthiophen-2-yl)-2-hydroxyethyl)-1-((9,9-difluoro-9H-fluorene-3-carbonyl)glycyl)-4-(difluoromethoxy) pyrrolidine-2-carboxamide]
Cc1ccc(-c2cccc(C(=O)NCC(=O)N3C[C@H](S(C)(=O)=O)C[C@H]3C(=O)N[C@H](CO)c3cc(C(=N)N)cs3)c2)cc1 [Compound 404, (2S,4R)—N—((R)-1-(4-carbamimidoylthiophen-2-yl)-2-hydroxyethyl)-1-((4′-methyl-[1,1′-biphenyl]-3-carbonyl)glycyl)-4-(methylsulfonyl) pyrrolidine-2-carboxamide]
N=C(N)c1csc([C@@H](CO)NC(=O)[C@@H]2C[C@](F)(CF)CN2C(=O)CNC(=O)c2ccc3c(c2)C(F)(F)c2ccccc2-3)c1 [Compound 405, (2S,4R)—N—((R)-1-(4-carbamimidoylthiophen-2-yl)-2-hydroxyethyl)-1-((9,9-difluoro-9H-fluorene-2-carbonyl)glycyl)-4-fluoro-4-(fluoromethyl)pyrrolidine-2-carboxamide]
CS(=O)(=O)[C@@H]1C[C@@H](C(=O)N[C@H](CO)c2cc(C(=N)N)cs2)N(C(=O)CNC(=O)c2ccc3c(c2)C(F)(F)c2ccccc2-3)C1 [Compound 406, (2S,4R)—N—((R)-1-(4-carbamimidoylthiophen-2-yl)-2-hydroxyethyl)-1-((9,9-difluoro-9H-fluorene-2-carbonyl)glycyl)-4-(methylsulfonyl)pyrrolidine-2-carboxamide]
CO[C@@H]1C[C@@H](C(=O)N[C@H](CO)c2cc(C(=N)N)cs2)N(C(=O)CNC(=O)c2ccc3c(c2)-c2ccccc2C3(F)F)C1 [Compound 407, (2S,4R)—N—((R)-1-(4-carbamimidoylthiophen-2-yl)-2-hydroxyethyl)-1-((9,9-difluoro-9H-fluorene-3-carbonyl)glycyl)-4-methoxypyrrolidine-2-carboxamide]
COC[C@@]1(F)C[C@@H](C(=O)N[C@H](CO)c2cc(C(=N)N)cs2)N(C(=O)CNC(=O)c2ccc3c(c2)-c2ccccc2C3(F)F)C1 [Compound 408, (2S,4R)—N—((R)-1-(4-carbamimidoylthiophen-2-yl)-2-hydroxyethyl)-1-((9,9-difluoro-9H-fluorene-3-carbonyl)glycyl)-4-fluoro-4-(methoxymethyl)pyrrolidine-2-carboxamide]
COC[C@@]1(F)C[C@@H](C(=O)N[C@H](CO)c2cc(C(=N)N)cs2)N(C(=O)CNC(=O)c2ccc3c(c2)-c2ccccc2C3(C)C)C1 [Compound 409, (2S,4R)—N—((R)-1-(4-carbamimidoylthiophen-2-yl)-2-hydroxyethyl)-1-((9,9-dimethyl-9H-fluorene-3-carbonyl)glycyl)-4-fluoro-4-(methoxymethyl)pyrrolidine-2-carboxamide]
C[C@@H](NC(=O)[C@@H]1C[C@@H](c2nccs2)CN1C(=O)CNC(=O)c1ccc(Oc2ccc(F)cc2)cc1)c1cc(C(=N)N)cs1 [Compound 412, (2S,4R)—N—((R)-1-(4-carbamimidoylthiophen-2-yl)ethyl)-1-((4-(4-fluorophenoxy)benzoyl)glycyl)-4-(thiazol-2-yl)pyrrolidine-2-carboxamide]
CC1(C)c2ccccc2-c2cc(C(=O)NCC(=O)N3C[C@H](OC(F)F)C[C@H]3C(=O)N[C@H](CO)c3cc(C(=N)N)cs3)ccc21 [Compound 413, (2S,4R)—N—((R)-1-(4-carbamimidoylthiophen-2-yl)-2-hydroxyethyl)-4-(difluoromethoxy)-1-((9,9-dimethyl-9H-fluorene-3-carbonyl)glycyl) pyrrolidine-2-carboxamide]
C[C@@H](NC(=O)[C@@H]1C[C@]2(COCCCCN)C[C@@H]2N1C(=O)CNC(=O)c1ccc2c(c1)-c1ccccc1C2(F)F)c1cc(C(=N)N)cs1 [Compound 414, (1S,3S,5R)-5-((4-aminobutoxy)methyl)-N—((R)-1-(4-carbamimidoylthiophen-2-yl)ethyl)-2-((9,9-difluoro-9H-fluorene-3-carbonyl)glycyl)-2-azabicyclo[3.1.0]hexane-3-carboxamide]
C[C@@H](NC(=O)[C@@H]1C[C@]2(COCCCCN(C)C)C[C@@H]2N1C(=O)CNC(=O)c1ccc2c(c1)-c1ccccc1C2(F)F)c1cc(C(=N)N)cs1 [Compound 415, (1S,3S,5R)—N—((R)-1-(4-carbamimidoylthiophen-2-yl)ethyl)-2-((9,9-difluoro-9H-fluorene-3-carbonyl)glycyl)-5-((4-(dimethylamino)butoxy)methyl)-2-azabicyclo[3.1.0]hexane-3-carboxamide]
C[C@@H](NC(=O)[C@@H]1CC(c2ncco2)CN1C(=O)CNC(=O)c1ccc2c(c1)-c1ccccc1C2(F)F)c1cc(C(=N)N)cs1 (stereo partly drawn) [Compound 416, (S)—N—((R)-1-(4-carbamimidoylthiophen-2-yl)ethyl)-1-((9,9-difluoro-9H-fluorene-3-carbonyl)glycyl)-4-(oxazol-2-yl)pyrrolidine-2-carboxamide]
CC1c2ccccc2-c2cc(C(=O)NCC(=O)N3C[C@@](F)(CF)C[C@H]3C(=O)N[C@H](C)c3cc(C(=N)N)cs3)ccc21 (stereo partly drawn) [Compound 417, (2S,4R)—N—((R)-1-(4-carbamimidoylthiophen-2-yl)ethyl)-4-fluoro-4-(fluoromethyl)-1-((9-methyl-9H-fluorene-3-carbonyl)glycyl)pyrrolidine-2-carboxamide]
COC[C@@]1(F)C[C@@H](C(=O)N[C@H](C)c2cc(C(=N)N)cs2)N(C(=O)CNC(=O)c2ccc3c(c2)-c2ccccc2C3C)C1 (stereo partly drawn) [Compound 418, (2S,4R)—N—((R)-1-(4-carbamimidoylthiophen-2-yl)ethyl)-4-fluoro-4-(methoxymethyl)-1-((9-methyl-9H-fluorene-3-carbonyl)glycyl)pyrrolidine-2-carboxamide]
CC1c2ccccc2-c2cc(C(=O)NCC(=O)N3C[C@H](S(C)(=O)=O)C[C@H]3C(=O)N[C@H](C)c3cc(C(=N)N)cs3)ccc21 (stereo partly drawn) [Compound 419, (2S,4R)—N—((R)-1-(4-carbamimidoylthiophen-2-yl)ethyl)-1-((9-methyl-9H-fluorene-3-carbonyl)glycyl)-4-(methylsulfonyl)pyrrolidine-2-carboxamide]
C[C@@H](NC(=O)[C@@H]1C[C@]2(Cc3ncno3)C[C@@H]2N1C(=O)CNC(=O)c1ccc2c(c1)-c1ccccc1C2(F)F)c1cc(C(=N)N)cs1 [Compound 420, (1S,3S,5S)-5-((1,2,4-oxadiazol-5-yl)methyl)-N—((R)-1-(4-carbamimidoylthiophen-2-yl)ethyl)-2-((9,9-difluoro-9H-fluorene-3-carbonyl)glycyl)-2-azabicyclo[3.1.0]hexane-3-carboxamide]
CC1c2ccccc2-c2cc(C(=O)NCC(=O)N3C[C@H](OC(F)F)C[C@H]3C(=O)N[C@H](C)c3cc(C(=N)N)cs3)ccc21 (stereo partly drawn) [Compound 421, (2S,4R)-N-((R)-1-(4-carbamimidoylthiophen-2-yl)ethyl)-4-(difluoromethoxy)-1-((9-methyl-9H-fluorene-3-carbonyl)glycyl) pyrrolidine-2-carboxamide]
C[C@@H](NC(=O)[C@@H]1C[C@]2(COCCCN(C)C)C[C@@H]2N1C(=O)CNC(=O)c1ccc2c(c1)-c1ccccc1C2(F)F)c1cc(C(=N)N)cs1 [Compound 422, (1S,3S,5R)-N-((R)-1-(4-carbamimidoylthiophen-2-yl)ethyl)-2-((9,9-difluoro-9H-fluorene-3-carbonyl)glycyl)-5-((3-(dimethylamino)propoxy)methyl)-2-azabicyclo[3.1.0]hexane-3-carboxamide]
N=C(N)c1c[nH]c(CNC(=O)[C@@H]2CC3(CN2C(=O)CNC(=O)c2ccc4c(c2)-c2ccccc2C4(F)F)OCCO3)c1 [Compound 423, (S)-N-((4-carbamimidoyl-1H-pyrrol-2-yl)methyl)-7-((9,9-difluoro-9H-fluorene-3-carbonyl)glycyl)-1,4-dioxa-7-azaspiro[4.4]nonane-8-carboxamide]
